Values belong to the compound of their own block, whether it stands above or below them.
How the values were obtained:
[1] = biological target: T1, Aurora kinase A (Homo sapiens, UniProt O14965)
T1 sequence (O14965 whole entry): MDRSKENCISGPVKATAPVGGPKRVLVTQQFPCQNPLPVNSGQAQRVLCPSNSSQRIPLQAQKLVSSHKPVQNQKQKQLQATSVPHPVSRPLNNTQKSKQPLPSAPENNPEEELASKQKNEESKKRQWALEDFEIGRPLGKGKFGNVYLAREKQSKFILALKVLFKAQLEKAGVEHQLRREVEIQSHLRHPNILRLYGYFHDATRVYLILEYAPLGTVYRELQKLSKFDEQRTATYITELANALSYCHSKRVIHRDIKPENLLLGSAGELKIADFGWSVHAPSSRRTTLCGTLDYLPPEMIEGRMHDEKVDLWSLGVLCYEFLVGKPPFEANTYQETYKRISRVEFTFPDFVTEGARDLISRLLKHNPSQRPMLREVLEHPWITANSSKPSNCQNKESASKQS
Description: Inhibition of phosphotransferase activity of recombinant aurora A expressed in HeLa cells

[2] = test system: HCT-116; assay: Antiproliferative activity against human HCT116 cells; assay type: functional, cell-based
[3] = Intrinsic clearance in human hepatic microsomes; assay type: ADME, Liver, Microsome
[4] = test system: HCT-116; assay: Antitumor activity against human HCT116 cells xenografted in mouse assessed as tumor growth inhibition at 100 mg/kg, ip qd for 14 days
[5] = test system: HCT-116; assay: Antitumor activity against human HCT116 cells xenografted in mouse assessed as tumor growth inhibition at 30 mg/kg, ip qd for 14 days
[6] = biological target: Tyrosine-protein kinase Fyn (Homo sapiens, UniProt P06241); assay: Inhibition of Fyn
Sequence of Tyrosine-protein kinase Fyn (P06241 whole entry): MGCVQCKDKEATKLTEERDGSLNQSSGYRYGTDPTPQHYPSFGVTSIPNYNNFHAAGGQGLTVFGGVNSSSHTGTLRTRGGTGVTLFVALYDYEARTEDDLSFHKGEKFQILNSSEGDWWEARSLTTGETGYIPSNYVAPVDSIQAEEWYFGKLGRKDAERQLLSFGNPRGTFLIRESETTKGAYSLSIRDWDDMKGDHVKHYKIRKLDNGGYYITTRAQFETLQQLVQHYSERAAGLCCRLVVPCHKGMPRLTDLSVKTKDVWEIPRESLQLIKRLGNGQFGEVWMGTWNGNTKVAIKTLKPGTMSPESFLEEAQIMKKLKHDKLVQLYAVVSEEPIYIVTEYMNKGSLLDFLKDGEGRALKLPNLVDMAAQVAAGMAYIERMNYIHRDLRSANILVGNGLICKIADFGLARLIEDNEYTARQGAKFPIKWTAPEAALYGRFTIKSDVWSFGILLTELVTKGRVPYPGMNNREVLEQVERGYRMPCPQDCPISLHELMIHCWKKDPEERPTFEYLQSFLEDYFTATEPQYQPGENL

[7] = Half life in rat at 30 mg/kg, po; assay type: ADME, organism-based; design: dose 30 mg/kg, route oral; settings: in vivo
[8] = test system: HCT-116; assay: Antitumor activity against human HCT116 cells xenografted in mouse assessed as tumor growth inhibition at 30 mg/kg, po qd for 14 days; assay type: functional; settings: HCT-116, 336 h
[9] = test system: Mus musculus; assay: Toxicity in human HCT116 cells xenografted mouse assessed as reduction in body weight at 30 mg/kg, po qd for 14 days; assay type: organism-based, HCT-116; design: dose 30 mg/kg, route oral; settings: in vivo, 336 h
[10] = biological target: Proto-oncogene tyrosine-protein kinase Src (Homo sapiens, UniProt P12931); assay: Inhibition of c-SRC
Sequence of Proto-oncogene tyrosine-protein kinase Src (P12931 2-536 limits assumed): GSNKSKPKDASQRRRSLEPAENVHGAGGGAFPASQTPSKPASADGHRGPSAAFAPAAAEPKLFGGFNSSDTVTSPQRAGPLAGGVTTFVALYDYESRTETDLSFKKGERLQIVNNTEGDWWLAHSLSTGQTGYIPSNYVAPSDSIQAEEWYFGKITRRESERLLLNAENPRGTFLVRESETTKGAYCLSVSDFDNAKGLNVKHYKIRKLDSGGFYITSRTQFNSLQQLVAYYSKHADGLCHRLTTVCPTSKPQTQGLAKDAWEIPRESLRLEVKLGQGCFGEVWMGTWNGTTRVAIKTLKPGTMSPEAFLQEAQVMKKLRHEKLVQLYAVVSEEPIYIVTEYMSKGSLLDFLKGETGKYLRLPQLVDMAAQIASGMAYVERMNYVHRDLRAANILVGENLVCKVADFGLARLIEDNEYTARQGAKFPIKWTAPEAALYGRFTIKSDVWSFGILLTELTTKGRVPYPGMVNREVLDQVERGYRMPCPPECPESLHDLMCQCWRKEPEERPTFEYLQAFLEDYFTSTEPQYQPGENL

[11] = Drug level in rat serum at 30 mg/kg, po after 24 hrs; assay type: ADME, organism-based; design: dose 30 mg/kg, route oral; settings: read-out: Drug uptake
[12] = biological target: Tyrosine-protein kinase Yes (Homo sapiens, UniProt P07947); assay: Inhibition of Yes
Sequence of Tyrosine-protein kinase Yes (P07947 whole entry): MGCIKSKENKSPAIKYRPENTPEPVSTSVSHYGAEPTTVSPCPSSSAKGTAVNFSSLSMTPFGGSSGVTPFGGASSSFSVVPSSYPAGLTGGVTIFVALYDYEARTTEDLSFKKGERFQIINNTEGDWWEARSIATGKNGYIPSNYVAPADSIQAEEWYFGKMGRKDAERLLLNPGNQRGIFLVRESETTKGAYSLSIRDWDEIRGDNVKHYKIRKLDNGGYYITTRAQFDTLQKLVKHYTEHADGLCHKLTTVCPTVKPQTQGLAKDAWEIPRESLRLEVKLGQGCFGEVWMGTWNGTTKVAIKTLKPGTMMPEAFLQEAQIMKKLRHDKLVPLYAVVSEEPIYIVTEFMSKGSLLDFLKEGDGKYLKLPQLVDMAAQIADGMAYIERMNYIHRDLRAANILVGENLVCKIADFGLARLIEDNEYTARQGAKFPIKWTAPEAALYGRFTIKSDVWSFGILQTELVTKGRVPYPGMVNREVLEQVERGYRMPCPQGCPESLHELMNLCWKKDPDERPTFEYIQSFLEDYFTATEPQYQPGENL

[13] = Tmax in rat at 30 mg/kg, po; assay type: ADME, organism-based; design: dose 30 mg/kg, route oral; settings: in vivo
[14] = Cmax in rat at 30 mg/kg, po; assay type: ADME, organism-based; design: dose 30 mg/kg, route oral; settings: in vivo
[15] = biological target: Aurora kinase B (Homo sapiens, UniProt Q96GD4); assay: Inhibition of aurora B
Sequence of Aurora kinase B (Q96GD4 whole entry): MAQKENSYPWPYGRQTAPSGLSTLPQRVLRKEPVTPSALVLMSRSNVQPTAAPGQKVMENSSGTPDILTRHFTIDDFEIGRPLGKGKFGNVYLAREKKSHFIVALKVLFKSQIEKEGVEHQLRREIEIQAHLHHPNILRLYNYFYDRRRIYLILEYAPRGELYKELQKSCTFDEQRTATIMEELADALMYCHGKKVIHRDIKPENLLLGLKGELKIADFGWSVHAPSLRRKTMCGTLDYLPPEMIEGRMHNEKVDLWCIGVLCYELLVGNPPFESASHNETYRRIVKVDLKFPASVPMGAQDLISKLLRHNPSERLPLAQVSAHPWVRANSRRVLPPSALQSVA

Compound: Cc1cc(Nc2cc(C)c(C#N)c(SCCCCCCN)n2)[nH]n1
- Ki [1]: 28 nM

Compound: Cc1cc(Nc2cc(C)c(C#N)c(NCCO)n2)[nH]n1
- Ki [1]: 20 nM

Compound: CC(=O)Nc1ccc(Sc2nc(Nc3cc(C)n[nH]3)cc(C)c2C#N)cc1
- Ki [1]: 5.3 nM

Compound: Cc1cc(Nc2cc(N3CCN(C)CC3)nc(Sc3ccc(NC(=O)C4CC4)cc3)n2)n[nH]1
- growth inhibition (GI) [4]: 68%
- growth inhibition (GI) [5]: 60%

Compound: Cc1cc(Nc2cc(C)c(C#N)c(N[C@H](C)CCCC(C)(C)O)n2)n[nH]1
- CL [3]: 110 µL/min/mg
- Ki [1]: 66 nM

Compound: Cc1cc(Nc2cc(-c3ccccc3)c(C#N)c(Sc3ccc(NC(=O)C(C)C)cc3)n2)n[nH]1
- Ki [1]: 310 nM

Compound: Cc1cc(Nc2cc(C)c(C#N)c(SCCCCCC(C)(C)O)n2)[nH]n1
- Ki [1]: 9.7 nM

Continued by falling Ki [1], values first:

- Ki [1]: 8.5 nM
Compound: Cc1cc(Nc2cc(C)c(C#N)c(SCCCCCCO)n2)[nH]n1

- Ki [1]: 4.5 nM
Compound: Cc1cc(Nc2cc(C)c(C#N)c(NCCCCCCO)n2)[nH]n1

- Ki [1]: 3.8 nM
Compound: CCCCCCSc1nc(Nc2cc(C)n[nH]2)cc(C)c1C#N

- Ki [1]: 2.3 nM
Compound: Cc1cc(Nc2cc(C)c(C#N)c(NCCCCCC(C)(C)O)n2)n[nH]1

- Ki [6]: 28 nM
- half-life [7]: 3.3 h
- Ki [10]: 26 nM
- IC50 [2]: 115 nM
- concentration at 24 h [11]: 52 nM
- Ki [12]: 24 nM
- Tmax [13]: 1.2 h
- Cmax [14]: 4930 nM
- Ki [15]: 101 nM
- CL [3]: 70 µL/min/mg
- Ki [1]: 1.2 nM
Compound: Cc1cc(Nc2cc(C)c(C#N)c(NC(C)CCCC(C)(C)O)n2)n[nH]1.Cl (racemic)
- inhibition in vivo at 30 mg/kg [8]: 59%
- Activity [9]: Non-toxic

- IC50 [2]: 52 nM
- CL [3]: 50 µL/min/mg
- Ki [1]: 0.59 nM
Compound: Cc1cc(Nc2cc(C)c(C#N)c(N[C@@H](C)CCCC(C)(C)O)n2)[nH]n1

Source: ChEMBL document CHEMBL1777738, “3-Cyano-6-(5-methyl-3-pyrazoloamino)pyridines: selective Aurora A kinase inhibitors” (Bioorg Med Chem Lett, 2010)
